Test results taken from patent publication US10610573B2, “NDP-MSH for treatment of inflammatory and/or neurodegenerative disorders of the central nervous system” (Westfaelische Wilhelms—Universitaet Muenster, priority 2013, dated 2020).

How the values were obtained:
[1] = test system: C57BL/6 mice with experimental autoimmune encephalomyelitis (EAE); assay: MOG35-55-induced EAE, therapeutic systemic NDP-MSH treatment; type: in vivo, mouse; conditions: 5 μg NDP-MSH i.v. every 48 h from clinical score 2-3 (day 12), vs PBS
Procedure: FIG. 1 Effect of systemic NDP-MSH treatment on ongoing Experimental Autoimmune Encephalomyelitis (EAE). C57BL/6 mice were actively immunized by subcutaneous injection of myelin oligodendrocyte glycoprotein (MOG35-55) emulsified in Complete Freund's Adjuvant and systemically treated with 5 μg NDP-MSH or PBS every 48 hours beginning at a clinical score of 2-3. Mice were monitored for clinical score (A) and body weight (B) and sacrificed at day 17. Data from n=17 mice in each group is depicted, *, p<0.05 versus PBS-treated controls.
To investigate whether NDP-MSH is able to inhibit autoimmunity and inflammation in organs different from the skin, such as the central nervous system (CNS), the mouse model of experimental autoimmune encephalomyelitis (EAE), a T cell-mediated inflammatory autoimmune disease resembling human multiple sclerosis, was used.
Therefore, C57BL/6 mice were actively immunized by subcutaneous injection of myelin oligodendrocyte glycoprotein (MOG35-55) emulsified in Complete Freund's Adjuvant at the back skin (day 0). At day 0 and day 2 mice received intraperitoneal injections of 400 ng pertussis toxin and disease development was monitored daily. […] All mice were sacrificed at day 17 and analyzed on a cellular and molecular level. […]

[2] = test system: brain tissue of EAE mice; assay: Histology and immunofluorescence of brain tissue from EAE mice; type: in vivo, mouse; conditions: day 17 post immunization, vs PBS
Procedure: FIG. 2 Histological analyses of brain tissue obtained from mice treated as described in FIG. 1. […] One representative image for each group (+NDP-MSH, +PBS) is shown.
Brain tissue from mice treated with NDP-MSH or PBS at day 17 post immunization obtained from Ex. 1 was analyzed. […] One representative overview (A) as well as a sectional enlargement (B) is depicted for each group. […] One representative image for each group is shown.

[3] = test system: Th1 and Th17 cells in the CNS; assay: Flow cytometry of pathogenic Th1 and Th17 cells in the CNS of EAE mice; type: in vivo, mouse; conditions: day 17 post immunization, brain and spinal cord, n=8, vs PBS controls
Procedure: FIG. 3 Effect of NDP-MSH treatment of numbers of pathogenic Th1 and Th17 cells in the CNS. At day 17 post immunization brain and spinal cord from EAE mice treated with PBS and NDP-MSH as described for FIG. 1 were isolated. Cells were analyzed by multi-color flow cytometry using antibodies against CD4, IL-17, ROR-γt, IFN-γ and T-bet. One representative image (A) as well as the statistical evaluation from n=8 mice in each group (B) is shown, Cells are gated for CD4 and IL-17, ROR-γt, IFN-γ as well as T-bet staining was performed after cell permeabilization.
Reduced numbers of pathogenic Th1 and Th17 cells in the CNS from NDP-MSH treated mice compared to PBS-treated controls. At day 17 post immunization brain and spinal cord were isolated from PBS- and NDP-MSH-treated mice and single cell suspensions were prepared using density gradient centrifugation. Subsequently, cells were analyzed by multi-color flow cytometry using antibodies against CD4, IL-17, ROR-gt, IFN-g and T-bet. […] Cells are gated for CD4 and IL-17, ROR-gt, IFN-g as well as T-bet staining was performed after cell permeabilization.

[4] = test system: Foxp3+ regulatory T cells; assay: Flow cytometry of Foxp3+ regulatory T cells from brain tissue of EAE mice; type: in vivo, mouse; conditions: day 17 post immunization, vs controls
Procedure: FIG. 4 Induction of functional regulatory T cells in the CNS by NDP-MSH treatment. Numbers, phenotype, and function of Foxp3^+ regulatory T cells isolated from brain tissue of NDP-MSH and PBS treated mice were analyzed. One representative dotplot (A) as well as the statistical evaluation from n=6 mice (B) is depicted. Cells are gated for CD4 and Foxp3 as well as Helios staining was performed after cell permeabilization. *, p<0.05 versus PBS treated mice.
Numbers, phenotype and function of Foxp3^+ regulatory T cells (Treg) isolated from brain tissue of NDP-MSH and PBS treated mice as described in Ex. 1 was analyzed at day 17 post immunization by flow cytometry analysis.

[5] = test system: effector T cells; assay: Suppression of effector T cell proliferation in vitro by Treg from treated mice; type: cell-based, mouse
[6] = test system: dendritic cells; assay: DC phenotype in regional lymph nodes of immunized mice; type: in vivo, mouse; conditions: vs PBS
Procedure: FIG. 5 Generation of tolerogenic dendritic cells by NDP-MSH treatment. The DC phenotype in regional lymph nodes from immunized NDP-MSH and PBS treated mice was analyzed. One representative dot plot (A) as well as the statistical evaluation from n=2-6 mice (B) is depicted. Cells are gated for MHCII and IL-10 as well as IFN-γ staining was performed after cell permeabilization. *, p<0.05 versus PBS treated mice.
Further, the DC phenotype in regional lymph nodes from immunized NDP-MSH and PBS treated mice was analyzed.

[7] = test system: MC-1R deficient mice; assay: EAE in MC-1R deficient mice; type: in vivo, mouse; conditions: treated as in Ex. 1
Source text: FIG. 6 Involvement of the melanocortin-1 receptor in effects of NDP-MSH on EAE progression. EAE was induced in MC-1R deficient mice as described in FIG. 1. Subsequently, disease development was monitored over time.
To investigate whether the NDP-MSH induced effects on the progression of EAE were mediated via binding to a functional MC-1R, EAE was induced in MC-1R deficient mice with a point mutation in the MC-1R gene resulting in a truncated protein (Roberts et al., 1993). Mice were immunized with MOG35-55, injected with pertussis toxin and treated with NDP-MSH or PBS as described in Ex. 1. Subsequently, disease development was monitored over time.

[8] = test system: Devic mice; assay: Spontaneous EAE model (Devic mice); type: in vivo, mouse
Procedure: FIG. 7 Devic mice at the age of 38 days and a clinical score of 7 (severe hind limb paralysis) were injected intravenously with 5 μg NDP-MSH every other day for 3 weeks. […] Disease progression was monitored over time.
To characterize the effects of NDP-MSH in a spontaneous EAE model Devic mice were used. Devic mouse mutants express transgenic T- and B-cell receptors specific for MOG and spontaneously develop EAE at the age of 4-5 weeks (Bettelli et al., 2006).
Starting at the age of 38 days when mice reached a clinical score of 7 (severe hind limb paralysis) animals were injected intravenously with 5 μg NDP-MSH every other day. […] Part of the mice almost completely recovered from disease. At day 60, NDP-MSH treatment was interrupted and mice were monitored for the onset of clinical symptoms.

[9] = test system: DEREG mice; assay: EAE in Treg-depleted DEREG mice; type: in vivo, mouse; conditions: Treg depleted by diphtheria toxin, 5 μg i.v. every 48 hours
Source text: Treg were depleted in DEREG mice as described by Lahl et al. (2007) by systemic treatment with diphtheria toxin. Subsequently, EAE was induced as described in FIG. 1.
Subsequently, EAE was induced as described in Ex. 1.

[10] = test system: CD11c-DTR mice; assay: EAE in DC-depleted CD11c-DTR mice; type: in vivo, mouse; conditions: DC depleted by diphtheria toxin, 5 μg i.v. every 48 hours
Procedure: DC were depleted in C11c-DTR mice as described by Hochweller et al. (2008) by systemic treatment with diphtheria toxin. Subsequently, EAE was induced as described in FIG. 1. 5 μg NDP-MSH were injected intravenously every 48 hours and disease progression was monitored over time.

[11] = test system: primary mouse neurons; assay: Glutamate-stimulated primary neurons, apoptosis genes and neuronal damage; type: cell-based
Procedure: FIG. 10 Expression of pro-apoptotic (caspase-8) and anti-apoptotic (Bcl-2) genes in primary mouse neurons after treatment with […] Glutamat or 50 μM Glutamat+1 nM NDP-MSH. Primary murine neurons were stimulated with glutamate which results in apoptosis (increased expression of pro-apoptotic caspase-8 and a reduced expression of anti-apoptotic Bcl-2 relative to PBS-treated controls).
The neuroprotective role of NDP-MSH was further confirmed analyzing neurons from NDP-MSH-treated animals and vehicle-treated controls (isolated before and after MOG immunization) using histological staining tests for the detection of myelin, NeuN, act. Caspase 3 and TUNEL. Further, in vitro stimulation of neurons from embryonic mice with glutamate—which causes cell damage—in the presence or absence of NDP-MSH and subsequent histological staining tests for the detection of myelin, NeuN, act. […] Thus, a neuroprotective effect of NDP-MSH is a very likely explanation for the observed effect in the EAE model.

[12] = test system: Nur77; assay: Nur77 expression in NDP-MSH stimulated neurons; type: cell-based; conditions: vs vehicle-treated controls
[13] = test system: MOG-immunized mice; assay: MOG-induced EAE, preemptive NDP-MSH injection; type: in vivo, mouse; conditions: preemptive injection before onset of hind limb paralysis
Source text: The neuropeptide α-MSH is a potent immunomodulator capable of inducing immunosuppression and tolerance. Using the mouse model of experimental autoimmune encephalomyelitis (EAE) the present inventors systemically treated MOG-immunized mice with NDP-MSH before and after the onset of hind limb paralysis. […] Since signaling via melanocortin-1-receptor (MC-1R) mediates the immunomodulatory effects of α-MSH, EAE was induced in MC-1R-deficient mice.

[14] = test system: rat primary astrocytes and microglia; conditions: in vitro, via MC-4R signaling; cited from earlier work
[15] = rat, in vivo; cited from earlier work
[16] = 50 μM glutamate + 1 nM NDP-MSH vs glutamate alone

Substance: [Nle^4, D-Phe^7]-α-MSH [NDP-MSH]
- body weight [1]: started gaining weight after the first injection
- paralysis (clinical score) [1]: recovered from paralysis
- expression of tissue destruction marker APP in the brain ([2]; immunofluorescence): Dramatically reduced expression
- expression of tissue inflammation marker RILPL2 in the brain ([2]; immunofluorescence): Dramatically reduced expression
- mononuclear pro-inflammatory cells infiltrating the brain (H&E staining) [2]: almost no cell infiltrates were detectable
- myelination of the brain (luxol fast blue staining) [2]: tremendous re-myelination
- reduced infiltration of Th1 cells in the CNS [3]: 2 factor
- reduced infiltration of Th17 cells in the CNS [3]: 5 factor
- numbers of Foxp3+ Treg expressing Helios or CTLA-4 in brain tissue [4]: present at higher numbers
- function of Treg from treated mice: proliferation of effector T cells [5]: efficiently inhibited the proliferation of effector T cells
- DC expression of PD-L1 or IL-10 [6]: increased levels
- DC maturation markers CD80 and IFN-γ [6]: down-regulated
- disease development (hind limb paralysis) [7]: developed hind limb paralysis similar to PBS treated controls
- disease course (clinical symptoms of EAE) ([8]; 5 μg i.v. every other day for 3 weeks from day 38, clinical score 7): significant amelioration of disease in all animals
- body weight ([8]; 5 μg i.v. every other day for 3 weeks, vs PBS): gained weight
- disease recurrence after treatment interruption ([8]; treatment interrupted at day 60, several weeks without injection): no disease recurrence
- disease severity [9]: reduced disease severity
- disease onset [10]: prevented disease onset
- expression of anti-apoptotic Bcl-2 [11, 16]: increased expression of anti-apoptotic Bcl-2
- expression of pro-apoptotic caspase-8 [11, 16]: reduced expression of pro-apoptotic caspase-8
- glutamate-induced neuronal damage (myelin, NeuN, act. Caspase 3, TUNEL staining) ([11]; neurons from embryonic mice, in vitro): reduce the glutamate-induced neuronal damage
- Nur77 receptor expression [12]: induction of the neuroprotective Nur77 receptor
- EAE development [13]: resistant to EAE development
- release of IL-10 and TGF-β [14]: stimulates the release of IL-10 and TGF-β

Substance: melanotan-II
- nerve regeneration and neuroprotection [15]: effective in nerve regeneration and neuroprotection
